pIC50: −log10 of the molar value.
Legend:
[1] = tested on: PI3Kα H1047R mutated cell line T-47D; assay: Phospho-AKT (Ser473) Inhibition Assay (HTRF), T-47D; format: cell-based; conditions: for pIC50: Homo sapiens, T47D, T-47D, 1 hour treatment, read-out: p-AKT Inhibition assay (S473) IC50 T-47D; for Selectivity: SK-BR-3/T-47D (p-AKT): p-AKT (S473) IC50 ratio
Procedure: (§1) Cell Culture Maintenance. The T-47D (ATCC, HTB-133) cell line was obtained from the American Type Culture Collection. Cells were maintained in RPMI1640 medium (Gibco, REF #22400105) supplemented with 10% Fetal Bovine Serum (Gibco, REF #10091148). Cultures were maintained in a humidified incubator at 37° C. under 5% CO2/95% air.
(§2) Phospho-AKT Inhibition Assay. HTRF Phospho-AKT (Ser473) detection kit (Cisbio, REF #64AKSPEH) was used in phosphor-AKT inhibition assay. For compound screening, PI3Kα H1047R mutated cell line T-47D and WT cell line SK-BR-3 cells were seeded at a density of 3×10^4 cells per well in 96 well plate (Costar, REF #3599) in 95 μL of assay medium (MEM medium (Gibco, REF #12561-056) with 1×NEAA (Gibco, REF #11140-050), 1 mM sodium pyruvate (Gibco, REF #11360-070), and 1 g/ml human insulin (Topscience, REF #T8221)), overnight. Compounds dissolved in 10 mM stock solutions in DMSO were serially diluted 1:3 in DMSO to generate an 11-point dilution series and plated using an INTEGRA ASSIST PLUS pipetting robot. A 20× intermediate compound dilution plate in RPMI1640 medium (200 M starting compound concentration in 2% DMSO) was then prepared. Five μL of intermediate serially diluted compounds were added to the cell plate to final concentrations ranging from […] to 0.1 nM in 0.1% DMSO. 0.1% DMSO alone was used to establish the maximum signal and GDC0077 at final concentration of 10 μM was used as a reference compound for minimum signal. After 1 hour treatment, removed medium and added 50 μL of supplemented lysis buffer (1×) immediately. Incubated for at least 30 minutes at room temperature under shaking. Transferred 16 μL of cell lysate from the 96-well cell-culture plate to a 384-white detection plate (PerkinElmer, Optiplate 384, 6007299). Added 4 μL of premixed antibody solutions prepared in the detection buffer. Incubated 4 hours at room temperature in dark. The plates were read on PHERAstar FSX Microplate reader (BMG LABTECH, Inc.) using standard HTRF settings.
(§3) Relative IC50 values were determined using luminescence units by calculating percent inhibition with respect to the in-plate “MIN” (GDC0077 reference control) and “MAX” (DMSO) controls. The data were analyzed using a 4-parameter nonlinear logistic equation (four-parameter logistic concentration-response curve): Y=bottom+[(top−bottom)/1+(X/IC50) slope] • where Y=% inhibition, X=concentration of inhibitor, bottom=minimum value of y attained by curve-fit, top=maximum value of y attained by curve-fit and slope=steepness of curve at the IC50.

[2] = target: PI3Kα (p110/p85) kinase (wild type, "WT") (Homo sapiens, UniProt P42336); assay: PI3Kα (p110/p85) kinase ADP-Glo Assay; format: biochemical; conditions: 25 uM ATP
Procedure: PI3Kα (p110/p85) kinase ADP-Glo Assay. Certain compounds disclosed herein were tested for inhibition of PI3Kα (p110/p85) kinase (wild type, “WT”) in assays based on the ADP-Glo™ Kinase Assay methodology. The assays were carried out in 384-well white plates in a reaction mixture containing PI3Kα (p110/p85) kinase, 25 µM ATP, 5.35 µg/mL PI(4,5)P2:PS Lipid Kinase Substrate and […] compound in buffer containing 50 mM HEPES pH7.5, 50 mM NaCl, 3 mM MgCl2, 0.0025% BSA and 2 mM DTT. PI3Kα (p110/p85) kinase was incubated with Lipid Kinase Substrate and compound for 30 minutes at room temperature and the reaction was initiated by the addition of ATP. After reaction at room temperature for 120 minutes, ADP-Glo™ reagents were added to terminate the kinase reaction and deplete the remaining ATP according to the manufacture's instruction (Promega Corporation). After incubation at room temperature for 1 hour, Kinase Detection Reagent (prepared by reconstituting the lyophilized Kinase Detection Substrate with Kinase Detection Buffer of the kit) was added to convert the ADP to ATP and to allow for the newly synthesized ATP to be measured using a luciferase/luciferin reaction. After incubation at room temperature for 0.5 hour, chemiluminescence signals were recorded on a PHERAstar FSX plate reader (BMG Labtech). The chemiluminescence generated in this assay correlates to the amount of ADP generated in the kinase assay, indicating kinase activity. […] The IC50 for each compound was derived from fitting the data to the four-parameter logistic equation by Dotmatics.

[3] = target: PI3Kα (p110[H1047R]/p85) kinase (Homo sapiens, UniProt P42336, H1047R); assay: PI3Kα (p110[H1047R]/p85) kinase ADP-Glo Assay; format: biochemical; conditions: 25 uM ATP; for selectivity: WT/H1047R: ADP-Glo Assay IC50 ratio
Procedure: PI3Kα (p110[H1047R]/p85) kinase ADP-Glo Assay. Certain compounds disclosed herein were tested for inhibition of PI3Kα (p110[H1047R]/p85) kinase in assays based on the ADP-Glo™ Kinase Assay methodology. The assays were carried out in 384-well white plates in a reaction mixture containing PI3Kα (p110[H1047R]/p85) kinase, 25 µM ATP, 5.35 µg/ml PI(4,5)P2:PS Lipid Kinase Substrate and […] compound in buffer containing 50 mM HEPES pH7.5, 50 mM NaCl, 3 mM MgCl2, 0.0025% BSA and 2 mM DTT. PI3Kα (p110[H1047R]/p85) kinase was incubated with Lipid Kinase Substrate and compound for 30 minutes at room temperature and the reaction was initiated by the addition of ATP.
After reaction at room temperature for 120 minutes, ADP-Glo™ reagents were added to terminate the kinase reaction and deplete the remaining ATP according to the manufacture's instruction (Promega Corporation). After incubation at room temperature for 1 hour, Kinase Detection Reagent (prepared by reconstituting the lyophilized Kinase Detection Substrate with Kinase Detection Buffer of the kit) was added to convert the ADP to ATP and to allow for the newly synthesized ATP to be measured using a luciferase/luciferin reaction. After incubation at room temperature for 0.5 hour, chemiluminescence signals were recorded on a PHERAstar FSX plate reader (BMG Labtech). The chemiluminescence generated in this assay correlates to the amount of ADP generated in the kinase assay, indicating kinase activity. […] The IC50 for each compound was derived from fitting the data to the four-parameter logistic equation by Dotmatics.

WT cell line SK-BR-3 = assay: Phospho-AKT (Ser473) Inhibition Assay (HTRF), SK-BR-3; format: cell-based; conditions: Homo sapiens; SK-BR-3, 1 hour treatment; read-out: p-AKT Inhibition assay (S473) IC50 SK-BR-3
Procedure: The SK-BR-3 (ATCC, HTB-30) cell line was obtained from the American Type Culture Collection. Cells were maintained in McCoy' 5A medium (Gibco, REF #16600108) supplemented with 10% Fetal Bovine Serum. Cultures were maintained in a humidified incubator at 37° C. under 5% CO2/95% air.
as §2, §3

[4] = tested on: PI3Kα H1047R mutated cell line T-47D cells; assay: Cell Proliferation Assay (CellTiter-Glo), T-47D; format: cell-based; conditions: Homo sapiens, T47D, 72 h; T-47D, 3 days treatment
Procedure: as §1
Cell Proliferation Assay. PI3Kα H1047R mutated cell line T-47D cells and WT cell line SK-BR-3 were seeded at a density of 3×10^3 cells per well in 96 well plate (Xinyou Biotechnology, 062096) in 95 μL of culture medium, overnight. Compounds dissolved in 10 mM stock solutions in DMSO were serially diluted 1:3 in DMSO to generate a 9-point dilution series and plated using an INTEGRA ASSIST Plus pipetting robot. A 20× intermediate compound dilution plate in RPMI1640 medium (200 M starting compound concentration in 2% DMSO) was then prepared. Five μL of intermediate serially diluted compounds were added to the cell plate to final concentrations ranging from […] to 1 nM in 0.1% DMSO. 0.1% DMSO alone was used to establish the maximum signal and medium without cells was for minimum signal. After 3 days treatment, equilibrated the plate and its contents at room temperature for approximately 30 minutes. Added 30 μL CellTiter-Glo® Reagent (Promega, REF #G7571) to each well. Then mixed contents for 5 min on plate shaker to induce cell lysis. Incubated at room temperature for 10 minutes to stabilize luminescent signal. The plates were read on PHERAstar FSX Microplate reader using standard luminescence settings.
Relative IC50 values were determined using luminescence units by calculating percent inhibition with respect to the in-plate “MIN” (medium only) and “MAX” (0.1% DMSO) controls. The data were analyzed using a 4-parameter nonlinear logistic equation (four-parameter logistic concentration-response curve): Y=bottom+[(top−bottom)/1+(X/IC50) slope] • where Y=% inhibition, X=concentration of inhibitor, bottom=minimum value of y attained by curve-fit, top=maximum value of y attained by curve-fit and slope=steepness of curve at the IC50.

Chain of PI3Kα (p110/p85) kinase (wild type, "WT") (P42336 whole entry): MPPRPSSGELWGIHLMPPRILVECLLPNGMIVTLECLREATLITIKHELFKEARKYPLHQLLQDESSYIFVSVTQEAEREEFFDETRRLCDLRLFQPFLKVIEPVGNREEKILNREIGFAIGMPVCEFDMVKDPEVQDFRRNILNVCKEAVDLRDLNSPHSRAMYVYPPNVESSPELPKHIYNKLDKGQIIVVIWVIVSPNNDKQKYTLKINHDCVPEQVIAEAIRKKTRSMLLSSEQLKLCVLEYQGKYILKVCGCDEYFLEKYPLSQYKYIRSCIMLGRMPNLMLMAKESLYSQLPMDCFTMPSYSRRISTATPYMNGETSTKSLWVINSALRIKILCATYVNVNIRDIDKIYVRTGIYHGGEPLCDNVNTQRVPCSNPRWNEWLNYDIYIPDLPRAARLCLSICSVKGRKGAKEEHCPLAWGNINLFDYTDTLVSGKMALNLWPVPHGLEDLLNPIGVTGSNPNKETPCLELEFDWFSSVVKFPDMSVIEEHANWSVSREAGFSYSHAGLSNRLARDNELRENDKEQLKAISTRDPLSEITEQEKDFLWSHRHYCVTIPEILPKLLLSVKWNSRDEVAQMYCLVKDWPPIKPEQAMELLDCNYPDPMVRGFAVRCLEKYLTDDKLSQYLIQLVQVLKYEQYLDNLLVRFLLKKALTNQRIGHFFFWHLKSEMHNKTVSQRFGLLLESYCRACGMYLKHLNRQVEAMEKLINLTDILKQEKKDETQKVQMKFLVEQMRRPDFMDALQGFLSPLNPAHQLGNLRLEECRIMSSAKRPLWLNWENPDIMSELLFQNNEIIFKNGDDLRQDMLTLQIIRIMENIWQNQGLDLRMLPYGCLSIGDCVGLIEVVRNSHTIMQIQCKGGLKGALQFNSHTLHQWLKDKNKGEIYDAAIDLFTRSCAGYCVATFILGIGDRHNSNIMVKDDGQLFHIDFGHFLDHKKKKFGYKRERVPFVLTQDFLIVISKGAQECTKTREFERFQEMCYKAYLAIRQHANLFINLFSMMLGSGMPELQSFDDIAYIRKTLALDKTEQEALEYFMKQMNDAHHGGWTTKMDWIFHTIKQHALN
Chain of PI3Kα (p110/p85) kinase (wild type, "WT") (P27986 whole entry partner): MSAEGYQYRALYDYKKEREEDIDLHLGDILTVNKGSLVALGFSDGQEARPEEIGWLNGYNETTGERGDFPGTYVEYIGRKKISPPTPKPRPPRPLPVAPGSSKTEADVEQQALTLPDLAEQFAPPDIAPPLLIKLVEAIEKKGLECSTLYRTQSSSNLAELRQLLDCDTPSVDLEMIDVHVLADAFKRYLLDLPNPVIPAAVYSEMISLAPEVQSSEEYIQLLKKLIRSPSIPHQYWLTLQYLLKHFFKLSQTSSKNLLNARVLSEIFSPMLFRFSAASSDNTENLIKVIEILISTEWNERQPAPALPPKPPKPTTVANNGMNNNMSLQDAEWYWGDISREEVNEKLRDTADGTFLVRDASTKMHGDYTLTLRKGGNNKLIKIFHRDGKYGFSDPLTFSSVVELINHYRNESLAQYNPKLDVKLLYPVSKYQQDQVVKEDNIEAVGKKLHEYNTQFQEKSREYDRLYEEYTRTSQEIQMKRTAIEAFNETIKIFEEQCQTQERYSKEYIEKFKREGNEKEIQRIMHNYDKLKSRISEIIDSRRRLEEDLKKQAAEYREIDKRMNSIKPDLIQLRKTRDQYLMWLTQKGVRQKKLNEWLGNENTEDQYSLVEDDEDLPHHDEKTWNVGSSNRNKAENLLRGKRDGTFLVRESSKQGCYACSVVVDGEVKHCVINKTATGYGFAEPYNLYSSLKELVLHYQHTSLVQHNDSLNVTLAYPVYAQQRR
Chain of PI3Kα (p110[H1047R]/p85) kinase (P42336 whole entry H1047R): as the sequence (P42336 whole entry) above, with H1047R counted along it
Chain of PI3Kα (p110[H1047R]/p85) kinase (P27986 whole entry partner): as the sequence (P27986 whole entry partner) above

SMILES | pIC50 [1] | Selectivity: SK-BR-3/T-47D (p-AKT) [1] | pIC50 [2] | pIC50 [3] | selectivity: WT/H1047R [3] | pIC50 (WT cell line SK-BR-3) | pIC50 [4]
Cc1cc(C(C)Nc2ccccc2C(=O)O)c2cc(-c3ccccc3)[nH]c(=O)c2c1 (stereo not drawn) [Example 26, 2-((1-(7-methyl-1-oxo-3-phenyl-1,2-dihydroisoquinolin-5-yl)ethyl)amino)benzoic acid] | 7.30 | >198 | 5.20 | 6.80 | 40 | < 5.00 | 
CC#Cc1cc2c(C(C)Nc3ccccc3C(=O)O)cc(C)cc2c(=O)n1C (stereo not drawn) [Example 27, 2-((1-(2,7-dimethyl-1-oxo-3-(prop-1-yn-1-yl)-1,2-dihydroisoquinolin-5-yl)ethyl)amino)benzoic acid] | 6.61 | >21 | 4.22 | 6.12 | 79 | < 5.00 | 
Cc1cc(C(C)Nc2ccccc2C(=O)O)c2cc(C#CC3CCCCC3)n(C)c(=O)c2c1 (stereo not drawn) [Example 28, 2-((1-(3-(cyclohexylethynyl)-2,7-dimethyl-1-oxo-1,2-dihydroisoquinolin-5-yl)ethyl)amino)benzoic acid] | 6.33 | 17 | < 4.00 | 6.30 | >198 | 5.19 | 
Cc1cc(C(C)Nc2ccccc2C(=O)O)c2cc(C(=O)Nc3ccccc3)n(C)c(=O)c2c1 (stereo not drawn) [Example 42, 2-((1-(2,7-dimethyl-1-oxo-3-(phenylcarbamoyl)-1,2-dihydroisoquinolin-5-yl)ethyl)amino)benzoic acid] | 6.53 |  | 4.14 | 6.01 | 73.8 |  | 5.45
Cc1cc(C(C)Nc2cnccc2C(=O)O)c2cc(-c3ccc(F)cc3)n(C)c(=O)c2c1 (stereo not drawn) [Example 54, 3-((1-(3-(4-fluorophenyl)-2,7-dimethyl-1-oxo-1,2-dihydroisoquinolin-5-yl)ethyl)amino)isonicotinic acid] |  |  | < 4.00 | 5.03 | >10 |  | 
COc1ncc(-c2cc3c([C@H](C)Nc4ccccc4C(=O)O)cc(C)cc3c(=O)n2C)cc1F [Example 60, (S)-2-((1-(3-(5-fluoro-6-methoxypyridin-3-yl)-2,7-dimethyl-1-oxo-1,2-dihydroisoquinolin-5-yl)ethyl)amino)benzoic acid] |  |  | 4.62 | 4.79 | 1.5 |  | 
Cc1cc([C@H](C)Nc2ccccc2C(=O)O)c2cc(-c3ccc(F)cc3)n(CC#N)c(=O)c2c1 [Example 65, (S)-2-((1-(2-(cyanomethyl)-3-(4-fluorophenyl)-7-methyl-1-oxo-1,2-dihydroisoquinolin-5-yl)ethyl)amino)benzoic acid] |  |  | < 4.00 | < 4.00 |  |  | 
Cc1cc([C@H](C)Nc2ccccc2C(=O)O)c2cc(-c3cnc(C(C)(C)O)nc3)n(C)c(=O)c2c1 [Example 68, (S)-2-((1-(3-(2-(2-hydroxypropan-2-yl)pyrimidin-5-yl)-2,7-dimethyl-1-oxo-1,2-dihydroisoquinolin-5-yl)ethyl)amino)benzoic acid] |  |  | 4.46 | 4.66 | 1.6 |  | 
Cc1cc(C(C)Nc2ccccc2C(=O)O)c2cc(-c3ccccc3C(N)=O)n(C)c(=O)c2c1 (stereo not drawn) [Example 90, 2-((1-(3-(2-carbamoylphenyl)-2,7-dimethyl-1-oxo-1,2-dihydroisoquinolin-5-yl)ethyl)amino)benzoic acid] |  |  | 4.05 | 5.71 | 46.0 |  | 
Cc1cc(C(C)Nc2csc3ccccc23)c2cc(-c3ccccc3)n(C)c(=O)c2c1 (stereo not drawn) [Example 93, 5-(1-(benzo[b]thiophen-3-ylamino)ethyl)-2,7-dimethyl-3-phenylisoquinolin-1(2H)-one] |  |  | < 4.00 | < 4.00 |  |  | 
Cc1cc([C@@H](C)Nc2ccccc2C(=O)O)c2cc(-c3ccc(C(C)(C)O)cc3)n(C)c(=O)c2c1 [Example 98, (R)-2-((1-(3-(4-(2-hydroxypropan-2-yl)phenyl)-2,7-dimethyl-1-oxo-1,2-dihydroisoquinolin-5-yl)ethyl)amino)benzoic acid] |  |  | 5.13 | 6.36 | 17.0 |  | 
